Results: US9657079B2, “Truncated GLP-1 derivatives and their therapeutical use” (Novo Nordisk A/S, priority 2007, dated 2017)
Where a SMILES comes first, the peptide text is derived from it. [ ]: non-standard residue; d: D form. Aib = CC(C)(N)C(=O)O

Legend:
[1] = target: T1, human GLP-1 receptor (Homo sapiens, UniProt P43220); assay: Stimulation of cAMP formation, plasma membranes from BHK467-12A (tk-ts13) cells, AlphaScreen cAMP kit; format: biochemical; settings: membranes of BHK467-12A (tk-ts13) expressing the human GLP-1 receptor; read-out: potency (EC50), cAMP formation
T1 construct: expressed in transfected cells; purified plasma membranes
T1 sequence (P43220 24-463): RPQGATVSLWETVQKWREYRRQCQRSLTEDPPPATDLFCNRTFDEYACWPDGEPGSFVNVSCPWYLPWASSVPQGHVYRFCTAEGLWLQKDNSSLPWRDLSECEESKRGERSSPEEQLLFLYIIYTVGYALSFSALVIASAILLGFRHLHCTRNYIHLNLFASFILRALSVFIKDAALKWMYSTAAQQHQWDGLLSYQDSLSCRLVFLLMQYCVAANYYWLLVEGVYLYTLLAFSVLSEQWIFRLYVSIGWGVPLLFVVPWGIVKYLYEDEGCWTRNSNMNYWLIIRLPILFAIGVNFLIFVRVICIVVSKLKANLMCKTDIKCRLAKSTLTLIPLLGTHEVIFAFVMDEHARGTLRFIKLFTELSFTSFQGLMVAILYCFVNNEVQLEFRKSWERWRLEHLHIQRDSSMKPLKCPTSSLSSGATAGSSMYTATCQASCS
Method: In particular embodiments (i) baby hamster kidney (BHK) cells expressing the cloned human GLP-1 receptor are used, preferably BHK-467-12A, more preferably BHK-467-12A (tk-ts13); (ii) the cells are grown in DMEM media with the addition of 100 IU/mL penicillin, 100 μg/mL streptomycin, 5% fetal calf serum and 0.5 mg/mL Geneticin G-418 (Life Technologies), preferably at 5% CO2; (iii) the cells, preferably at approximately 80% confluence, are washed twice in phosphate buffered saline; (iv) the cells are harvested with an aqueous solution of tetrasodium salt of ethylenediaminetetraacetic acid, such as Versene; (v) plasma membranes are prepared from the cells by homogenisation, preferably in buffer 1; the homogenate is centrifuged, e.g. at 48,000×g for 15 min at 4° C.; and/or (vii) the pellet is suspended by homogenization in buffer 2. Steps (vi) and (vii) are preferably repeated, e.g. one or two times more.
The functional receptor assay may be carried out as described in Example 21 by measuring cyclic AMP (cAMP) as a response to stimulation by the insulinotropic agent. cAMP formed is preferably quantified by the AlphaScreen™ cAMP Kit (Perkin Elmer Life Sciences). Incubations may be carried out in half-area 96-well microtiter plates in a total volume of 50 μL buffer 3 (50 mM Tris-HCI, 5 mM HEPES, 10 mM MgCl2, pH 7.4) and with the following additions: 1 mM ATP, 1 μM GTP, 0.5 mM 3-isobutyl-1-methylxanthine (IBMX), 0.01% Tween-20, 0.1% BSA, 6 μg membrane preparation, 15 μg/mL acceptor beads, 20 μg/mL donor beads preincubated with 6 nM biotinyl-cAMP. Analogues or derivatives to be tested for agonist activity are preferably dissolved and diluted in buffer 3. GTP is freshly prepared for each experiment. […]
For comparison, the potency of truncated natural, human GLP-1(7-33) was also determined.
Purified plasma membranes from a stable transfected cell line, BHK467-12A (tk-ts13), expressing the human GLP-1 receptor was stimulated with GLP-1 compound in question, and the potency of cAMP production was measured using the AlphaScreen™ cAMP Assay Kit from Perkin Elmer Life Sciences. […]
Cells at approximate 80% confluence are washed 2× with PBS (Phosphate Buffered Saline) and harvested with Versene (aqueous solution of the tetrasodium salt of ethylenediaminetetraacetic acid), centrifuged 5 min at 1000 rpm and the supernatant removed. […] Suspension in Buffer 2, homogenization and centrifugation is repeated once and the membranes are resuspended in Buffer 2 and ready for further analysis or stored at −80° C.
The functional receptor assay was carried out by measuring the peptide induced cAMP production by The AlphaScreen Technology. […] Formed cAMP is counted and measured at a Alpha Fusion Microplate Analyzer. […]

[2] = target: T2, isolated N-terminal extracellular domain of the GLP-1R receptor (nGLP-1R) (Homo sapiens, UniProt P43220); assay: Displacement of 125I-Exendin-4(9-39) from nGLP-1R (SPA); format: binding; settings: SPA beads, read-out: affinity to nGLP-1R (IC50)
T2 construct: isolated N-terminal extracellular domain of the GLP-1R receptor (nGLP-1R); made in house
T2 sequence (P43220 24-139 limits assumed): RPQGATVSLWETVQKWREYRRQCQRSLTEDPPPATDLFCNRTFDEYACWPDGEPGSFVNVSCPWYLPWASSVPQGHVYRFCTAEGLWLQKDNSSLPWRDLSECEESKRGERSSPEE
Method: The protein is then biotinylated and immobilized, preferably on streptavidin-coated SPA beads. The nGLP1R in a suitable buffer such as 0.1M NaHCO3 may be biotinylated using 75 μg BNHS (Sigma H1759) to 1 mg protein. The biotinylated nGLP1R is subsequently preferably dialyzed against PBS. […] The plates are incubated on a shaker, preferably at RT for 3 hours. The SPA particles may be spun down by centrifugation, e.g. for 10 min at 1500 rpm, and the plates are counted, e.g. in a TopCount-NXT (PerkinElmer).
The nGLP1R in 0.1M NaHCO3 was biotinylated using 75 μg BNHS (Sigma H1759) to 1 mg protein. The biotinylated nGLP1R was subsequently dialyzed against PBS. All reagents and derivatives were diluted in PBS with 0.05% v/v Tween 20. […] The plates were incubated on a shaker at RT for 3 hours. The SPA particles were spun down by centrifugation for 10 min at 1500 rpm and the plates were counted in a TopCount-NXT (PerkinElmer).

[3] = target: T1, human GLP-1 receptor; assay: Displacement of 125I-GLP-1 from the GLP-1 receptor, BHK tk-ts13 membranes (SPA); settings: displacement of 125I-GLP-1, BHK tk-ts13 membranes, read-out: IC50, binding affinity to the GLP-1 receptor
Text: In a second aspect, the GLP-1 analogue or derivative thereof (“GLP-1 compound”) has a high affinity to the GLP-1 receptor. The affinity to the GLP-1 receptor may be determined as described in Example 23, i.e. by way of displacement of ^125I-GLP-1 from the receptor. BHK cells may be used for membrane preparation, preferably strain tk-ts13. The membranes may be purified, preferably as described in Example 23, A preferred binding assay method is the SPA assay of Example 23.
The binding affinity of a number of GLP-1 compounds of the invention (compounds of Examples 1-7, and 9-18) to the human GLP-1 receptor was measured by way of their ability to displace ^125I-GLP-1 from the receptor.
Species (in vitro): Hamster
Biological End Point: Receptor Binding
The cells (approx. 80% confluence) were washed twice in PBS and harvested (PBS+EDTA or Versene), following which they were separated by centrifugation at 1000 rpm for 5 min. The cells/cell pellet must be kept on ice to the extent possible in the subsequent steps. The cell pellet was homogenised with Ultrathurrax for 20-30 seconds in a suitable amount of Buffer 1 (depending on the amount of cells, but e.g. 10 ml). The homogenate as centrifuged at 20000 rpm for 15 minutes. The pellet was resuspended (homogenised) in 10 ml Buffer 2 and re-centrifuged. This step was repeated once more. The resulting pellet was resuspended in Buffer 2, and the protein concentration was determined. The membranes were stored at −80° C.
Buffer 1: 20 mM Na-HEPES+10 mM EDTA, pH 7.4
Buffer 2: 20 mM Na-HEPES+0.1 mM EDTA, pH 7.4
Test compounds/peptides, membranes, SPA-particles and [^125I] are diluted in assay buffer. 25 ul (micro liter) of test compounds/peptides are added to Optiplate. Buffer is added (50 ul). Add 5-10 ug protein/sample (50 ul) corresponding to 0.1-0.2 mg protein/ml (to be preferably optimised for each membrane preparation). Add SPA-particles (Wheatgerm agglutinin SPA beads) RPNQ 0001) 0.5 mg/well (50 ul). Start the incubation with [I^125]-GLP-1 (final concentration 0.05 nM corresponding to 49.880 DPM, 25 ul). The plates are sealed with PlateSealer. Incubate for 120 minutes at 30° C. while shaking. The plates are centrifuged (1500 rpm, 10 min) and counted in Topcounter.
Assay buffer: 50 mM HEPES

EC50 [1] [nM]	IC50 [2] [nM]	IC50 [3] [nM]	SMILES
< 0.3	200 to 1500	0.24 to 44	CC[C@H](C)[C@H](NC(=O)[C@H](Cc1ccccc1)NC(=O)[C@H](CCC(=O)O)NC(=O)[C@H](CCCNC(=N)N)NC(=O)[C@H](C)NC(=O)[C@H](C)NC(=O)[C@H](CCC(N)=O)NC(=O)[C@H](CCC(=O)O)NC(=O)[C@H](CCC(=O)O)NC(=O)[C@H](CC(C)C)NC(=O)[C@H](Cc1ccc(O)cc1)NC(=O)[C@H](CO)NC(=O)[C@H](CO)NC(=O)[C@@H](NC(=O)[C@H](CC(=O)O)NC(=O)[C@H](CO)NC(=O)[C@@H](NC(=O)[C@H](Cc1ccccc1)NC(=O)[C@@H](NC(=O)CNC(=O)[C@H](CCC(=O)O)NC(=O)[C@H](C)NC(=O)[C@@H](N)Cc1c[nH]cn1)[C@@H](C)O)[C@@H](C)O)C(C)C)C(=O)N[C@@H](C)C(=O)N[C@@H](Cc1c[nH]c2ccccc12)C(=O)N[C@@H](CC(C)C)C(=O)N[C@H](C(N)=O)C(C)C [Example 1, [Glu22,Arg26]GLP-1 (7-33) Amide] (H-HAEGTFTSDVSSYLEEQAAREFIAWLV-NH2)
< 0.3	200 to 1500	0.24 to 44	CC[C@H](C)[C@H](NC(=O)[C@H](Cc1ccccc1)NC(=O)[C@H](CCC(=O)O)NC(=O)[C@H](CCCNC(=N)N)NC(=O)[C@@H](NC(=O)[C@H](C)NC(=O)[C@H](CCC(N)=O)NC(=O)[C@H](CCC(=O)O)NC(=O)[C@H](CCC(=O)O)NC(=O)[C@H](CCCCN)NC(=O)[C@H](Cc1ccc(O)cc1)NC(=O)[C@H](CO)NC(=O)[C@H](CO)NC(=O)[C@@H](NC(=O)[C@H](CC(=O)O)NC(=O)[C@H](CO)NC(=O)[C@@H](NC(=O)[C@H](Cc1ccccc1)NC(=O)[C@@H](NC(=O)CNC(=O)[C@H](CCC(=O)O)NC(=O)C(C)(C)NC(=O)[C@@H](N)Cc1c[nH]cn1)[C@@H](C)O)[C@@H](C)O)C(C)C)C(C)C)C(=O)N[C@@H](CCC(=O)O)C(=O)N[C@@H](Cc1c[nH]c2ccccc12)C(=O)N[C@@H](CC(C)C)C(=O)N[C@H](C(N)=O)C(C)C [Example 5, [Aib8,Lys20,Glu22,Val25,Arg26,Glu30] GLP-1 (7-33) Amide] (H-H[Aib]EGTFTSDVSSYKEEQAVREFIEWLV-NH2)
< 0.3	200 to 1500	0.24 to 44	CC[C@H](C)[C@H](NC(=O)[C@H](Cc1ccccc1)NC(=O)[C@H](CCC(=O)O)NC(=O)[C@H](CCCNC(=N)N)NC(=O)[C@H](C)NC(=O)[C@H](C)NC(=O)[C@H](CCC(N)=O)NC(=O)[C@H](CCC(=O)O)NC(=O)[C@H](CCC(=O)O)NC(=O)[C@H](CC(C)C)NC(=O)[C@H](Cc1ccc(O)cc1)NC(=O)[C@H](CO)NC(=O)[C@H](CO)NC(=O)[C@@H](NC(=O)[C@H](CC(=O)O)NC(=O)[C@H](CO)NC(=O)[C@@H](NC(=O)[C@H](Cc1ccccc1)NC(=O)[C@@H](NC(=O)CNC(=O)[C@H](CCC(=O)O)NC(=O)[C@H](C)NC(=O)[C@@H](N)Cc1c[nH]cn1)[C@@H](C)O)[C@@H](C)O)C(C)C)C(=O)N[C@@H](C)C(=O)N[C@@H](Cc1c[nH]c2ccccc12)C(=O)N[C@@H](CC(C)C)C(=O)N[C@H](C(=O)O)C(C)C [Example 7, [Glu22, Arg26]GLP-1(7-33)peptide] (H-HAEGTFTSDVSSYLEEQAAREFIAWLV-OH)
< 0.3	200 to 1500	0.24 to 44	CC[C@H](C)[C@H](NC(=O)[C@H](Cc1ccccc1)NC(=O)[C@H](CCC(=O)O)NC(=O)[C@H](CCCNC(=N)N)NC(=O)[C@@H](NC(=O)[C@H](C)NC(=O)[C@H](CCC(N)=O)NC(=O)[C@H](CCC(=O)O)NC(=O)[C@H](CCC(=O)O)NC(=O)[C@H](CC(C)C)NC(=O)[C@H](Cc1ccc(O)cc1)NC(=O)[C@H](CO)NC(=O)[C@H](CO)NC(=O)[C@@H](NC(=O)[C@H](CC(=O)O)NC(=O)[C@H](CO)NC(=O)[C@@H](NC(=O)[C@H](Cc1ccccc1)NC(=O)[C@@H](NC(=O)CNC(=O)[C@H](CCC(=O)O)NC(=O)[C@H](C)NC(=O)[C@@H](N)Cc1c[nH]cn1)[C@@H](C)O)[C@@H](C)O)C(C)C)C(C)C)C(=O)N[C@@H](C)C(=O)N[C@@H](Cc1c[nH]c2ccccc12)C(=O)N[C@@H](CC(C)C)C(=O)N[C@H](C(N)=O)C(C)C [Example 4, [Glu22, Val25, Arg26] GLP-1 (7-33)amide] (H-HAEGTFTSDVSSYLEEQAVREFIAWLV-NH2)
